The values below come from PubChem BioAssay (NCI).

Each structure is given as a SMILES string.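 48-hour exposure; five concentrations; linearly interpolated endpoints. Here, GI50 denotes the concentration required for 50% inhibition of growth. Definition used: TGI = concentration required for complete inhibition of growth.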

Assay in all cases: inhibition of tumour cell growth, NCI panel, 48 h
Experiment [1] relates to SF-539 CNS.
Experiment [2] deals with SF-295 CNS.
The subject of experiment [3] is K-562 leukemia.
The subject of experiment [4] is NCI/ADR-RES ovarian.
For experiment [5], the system named is MALME-3M melanoma.
For experiment [6], the system named is SK-MEL-28 melanoma.
For experiment [7], the system named is KM12 colon.
The subject of experiment [8] is OVCAR-3 ovarian.
In experiment [9] the test system is A549 NSCLC.
In experiment [10] the test system is SF-268 CNS.

As for `Cc1cc(/C=C\c2ccc3ccccc3[n+]2C)c(O)c2ncccc12`, the GI50 in [1] is 0.202 µM; in [2], 0.0827 µM; in [3] it was 0.169 µM; in [4], 1.1 µM; in experiment [5], 1.17 µM; in experiment [6], 0.517 µM. Besides, the GI50 in experiment [7] is 0.182 µM; in [8], 0.176 µM; in experiment [9], 0.564 µM; in experiment [10], 0.486 µM. For the same molecule, the TGI in experiment [1] is 0.909 µM; in experiment [2] it was 1.44 µM; in experiment [3], over 100 µM; in [4], 13.6 µM; in [5] it was 5.16 µM; in experiment [6], 4.39 µM. The TGI in experiment [7] was 1.34 µM; in experiment [8] it was 0.569 µM; in [9], 13.6 µM; in experiment [10], 8.63 µM.

Regarding `CN(C)c1nc(N(C)C)nc(N(C)C23CC4CC(CC(C4)C2)C3)n1`, the TGI was over 100 µM in experiment [1]; over 100 µM in [2]; over 100 µM in [3]; over 100 µM in experiment [4]; 95.7 µM in experiment [5]; over 100 µM in experiment [6]. In addition, the TGI in [7], in experiment [8], in experiment [9] and in experiment [10] was over 100 µM each time.

As for `N=C1N(S(=O)(=O)c2ccccc2)[C@@H](Cc2ccccc2)[C@H](c2ccccc2)C1(c1ccccc1)c1ccccc1`, the TGI in experiment [1], in experiment [2], in experiment [3], in [4], in [5] and in [6] was over 100 µM each time. Also, the TGI in experiment [7], in experiment [8], in experiment [9] and in experiment [10] was over 100 µM in each case.

`COc1cc2c(cc1OCCCC(=O)Nc1cc(C(=O)Nc3cc(C(=O)Nc4cc(C(=O)NCCCN(C)C)n(C)n4)n(C)n3)n(C)n1)N=CC1CCCN1C2=O` (stereo unspecified): the TGI in experiment [1] was over 100 µM; in [2], 86.6 µM; in experiment [3], over 100 µM; in [4], 81.7 µM; in [5] it was 25.5 µM; in experiment [6], 30.7 µM. Also, the TGI in experiment [7] was 47 µM; in experiment [8] it was over 100 µM; in experiment [9], over 100 µM; in experiment [10] it was 89.3 µM.

`COc1nc2c(c(=O)n1C)N[C@H]1[C@H](OC(C)=O)[C@@H](OC(C)=O)CO[C@H]1N2`: the TGI in experiment [1], in experiment [2], in experiment [3], in [4], in experiment [5] and in experiment [6] was over 100 µM in each case. The TGI in experiment [7], in [8], in experiment [9] and in [10] was over 100 µM each time.

As for `c1ccc(CCNCc2ccco2)nc1`, the TGI in [1] is over 100 µM; in experiment [2], over 100 µM; in experiment [3] it was over 33.6 µM; in experiment [4] it was over 100 µM; in experiment [5], over 100 µM; in experiment [6] it was over 100 µM. The TGI in experiment [7], in experiment [8], in experiment [9] and in experiment [10] was over 100 µM each time.

With `Cc1ccncc1.F[B-](F)(F)F.[Pt+2].c1ccc(-c2cccc(-c3ccccn3)n2)nc1`, the TGI in experiment [1] is 15.1 µM; in experiment [2], 7.74 µM; in [3], over 100 µM; in experiment [4], 11.7 µM; in experiment [5], 20.1 µM; in [6], over 100 µM. In addition, the TGI in experiment [7] was 39.5 µM; in experiment [8], over 44.3 µM; in experiment [9], over 75.7 µM; in experiment [10] it was over 60 µM. Also, in [8], the GI50 is 0.835 µM.

Consider `O=C1C=CC(=O)C(CNc2ccc(C(=O)OC34CC5CC(CC(C5)C3)C4)cc2)=C1`, for which the TGI in experiment [1] is 8.89 µM; in experiment [2] it was 39.2 µM; in [3], over 49.3 µM; in experiment [4], 44.1 µM; in experiment [5] it was 21.4 µM; in experiment [6], 17.8 µM. For the same molecule, the TGI in experiment [7] was 22.5 µM; in experiment [8] it was 14.4 µM; in experiment [9], 56.9 µM; in experiment [10] it was 17.3 µM.
